PMC13586308, “Cell type–selective targeting by heterobifunctional protein binders via in-cell enrichment” (Nature Communications, 2026)
Like-named read-outs stand apart in the source and are kept apart here.

Experiments:
BRD4^BD1 = target: T1, BRD4^BD1 (Homo sapiens, UniProt O60885); assay: competitive fluorescence polarization assay, BRD4 BD1 -/+ presenter protein; type: binding
T1 construct: to the isolated BD1 and BD2 domains of BRD2, BRD3 and BRD4

BRD4^BD2 = target: T2, BRD4^BD2 (Homo sapiens, UniProt O60885); assay: competitive fluorescence polarization assay, BRD4 BD2 -/+ presenter protein; type: binding
T2 construct: to the isolated BD1 and BD2 domains of BRD2, BRD3 and BRD4

BRD4 43-463 Y390A [1] = target: BRD4 43-463 Y390A (Homo sapiens, UniProt O60885, Y390A); assay: competitive FP assay, BRD4 tandem construct Y390A; type: binding
BRD4 43-463 Y390A [2] = assay: competitive FP assay, BRD4 tandem construct Y390A; type: binding
BRD4 43-463 Y97A [3] = target: BRD4 43-463 Y97A (Homo sapiens, UniProt O60885, Y97A); assay: competitive FP assay, BRD4 tandem construct Y97A; type: binding
BRD4 43-463 Y97A [4] = assay: competitive FP assay, BRD4 tandem construct Y97A; type: binding
BRD2BD1 = target: T3, BRD2BD1 (Homo sapiens, UniProt P25440); assay: competitive FP assay, BRD2 BD1 -/+ FKBP12; type: binding
T3 construct: to the isolated BD1 and BD2 domains of BRD2, BRD3 and BRD4

BRD2BD2 = BRD2BD2 (Homo sapiens, UniProt P25440); assay: competitive FP assay, BRD2 BD2 -/+ FKBP12; type: binding
BRD3BD1 = target: T4, BRD3BD1 (Homo sapiens, UniProt Q15059); assay: competitive FP assay, BRD3 BD1 -/+ FKBP12; type: binding
T4 construct: to the isolated BD1 and BD2 domains of BRD2, BRD3 and BRD4

BRD3BD2 = target: T5, BRD3BD2 (Homo sapiens, UniProt Q15059); assay: competitive FP assay, BRD3 BD2 -/+ FKBP12; type: binding
T5 construct: to the isolated BD1 and BD2 domains of BRD2, BRD3 and BRD4

[5] = target: T6, His-BRD4^BD1 + eGFP-FKBP12 (Homo sapiens, UniProt O60885+P62942); assay: HTRF ternary complex formation BRD4 BD1 + EGFP-FKBP12; type: binding; settings: eGFP-FKBP12 5 µM, His-BRD4^BD1 100 nM; read-out: HTRF BRD4^BD1 + GFP-FKBP12 Kd
T6 construct: the His6-tag of the respective BD1 or BD2 domain of BRD4 and EGFP-labeled FKBP12

[6] = target: T7, His-BRD4^BD2 + eGFP-FKBP12 (Homo sapiens, UniProt O60885+P62942); assay: HTRF ternary complex formation BRD4 BD2 + EGFP-FKBP12; type: binding; settings: eGFP-FKBP12 5 µM, His-BRD4^BD2 100 nM; read-out: HTRF BRD4^BD2 + GFP-FKBP12 Kd
T7 construct: the His6-tag of the respective BD1 or BD2 domain of BRD4 and EGFP-labeled FKBP12

FKBP12 = FKBP12 (Homo sapiens, UniProt P62942); assay: NanoBRET FKBP12 in intact HEK293 cells; type: cell-based
BRD4 = target: T8, BRD4 (Homo sapiens, UniProt O60885); assay: NanoBRET BRD4, transient BRD4-NanoLuc in HEK293T cells; type: cell-based; settings: intact HEK293 cells
T8 construct: full-length BRD4 fused to NanoLuc at N terminus; expressed in transfected cells; host or cells: HEK293T
Outline: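 BRD4 engagement measured in HEK293T cells transiently expressing N-terminal NanoLuc-BRD4 (20 h), with BRD Tracer-02 at its KD concentration. Cells equilibrated with serially diluted inhibitors for 2 h at 37 °C. Donor 450 nm/acceptor 610 nm BRET read; IC50 from normalized 3-parameter fit.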

MV4-11 cells = assay: CellTiter-Glo cell viability, MV4-11; type: cell-based, human; settings: five days, without FKBP12 PROTAC
INA-6 cells = assay: cell viability, INA-6 FKBP12 knockout or NTC; type: cell-based, human; settings: for IC50: Homo sapiens, INA-6
MYC mRNA = assay: quantitative RT-PCR of MYC mRNA, MV4-11; type: cell-based, human; settings: Homo sapiens, 6 h; MV4-11, six hours, without FKBP12 PROTAC; read-out: MYC mRNA levels IC50
[7] = ratio of binding in absence or presence of FKBP12

T3 sequence (P25440 74-180 limits assumed): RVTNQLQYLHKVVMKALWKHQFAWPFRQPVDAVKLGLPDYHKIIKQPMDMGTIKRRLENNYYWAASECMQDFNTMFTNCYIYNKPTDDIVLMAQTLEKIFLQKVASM
Sequence of BRD2BD2 (P25440 344-453 limits assumed): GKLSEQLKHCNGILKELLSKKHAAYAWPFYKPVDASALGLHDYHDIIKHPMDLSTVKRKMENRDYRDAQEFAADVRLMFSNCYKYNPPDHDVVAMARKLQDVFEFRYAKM
T4 sequence (Q15059 34-140 limits assumed): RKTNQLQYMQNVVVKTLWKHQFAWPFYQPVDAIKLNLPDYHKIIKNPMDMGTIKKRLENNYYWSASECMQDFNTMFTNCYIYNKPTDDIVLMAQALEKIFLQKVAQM
T5 sequence (Q15059 306-415 limits assumed): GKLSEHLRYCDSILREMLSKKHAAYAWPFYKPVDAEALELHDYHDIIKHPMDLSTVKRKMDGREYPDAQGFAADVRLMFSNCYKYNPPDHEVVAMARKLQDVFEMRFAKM

Cc1sc2c(c1C)C(c1ccc(C#CCNC(=O)COCCn3cc(C4CN(Cc5ccccn5)C(=O)C5CCCC4N5S(=O)(=O)c4cc(Cl)cc(Cl)c4)nn3)cc1)=NC(CC(=O)OC(C)(C)C)c1nnc(C)n1-2 (centres unmarked) [b3c]
Kd (BRD4^BD1; 15 µM FKBP51FK1, read-out: Binding to BRD4BD1 + FKBP51FK1 Kd): 50 ± 17 nM
Kd (BRD4^BD1; absence of FKBP12, 2 nM JQ1-FL tracer, read-out: Binding to BRD4^BD1 - FKBP12 Kd): 130 ± 20 nM
Kd (BRD4^BD1; absence of FKBP51FK1 (SI Table 3), read-out: Binding to BRD4BD1 - FKBP51FK1 Kd): 73 ± 20 nM
Kd (BRD4^BD1; presence of 15 µM FKBP12, read-out: Binding to BRD4^BD1 + FKBP12 Kd (converted)): 8 nM
α BRD4^BD1 (binding cooperativity factor) (BRD4^BD1; [7]): 16
Kd (BRD4^BD2; 15 µM FKBP51FK1, read-out: Binding to BRD4BD2 + FKBP51FK1 Kd): 250 ± 70 nM
Kd (BRD4^BD2; absence of FKBP12, 2 nM JQ1-FL tracer, read-out: Binding to BRD4^BD2 - FKBP12 Kd): 150 ± 20 nM
Kd (BRD4^BD2; absence of FKBP51FK1 (SI Table 3), read-out: Binding to BRD4BD2 - FKBP51FK1 Kd): 120 ± 40 nM
Kd (BRD4^BD2; presence of 15 µM FKBP12, read-out: Binding to BRD4^BD2 + FKBP12 Kd (converted)): 13 nM
α BRD4^BD2 (binding cooperativity factor) (BRD4^BD2; [7]): 12
Kd (BRD4 43-463 Y390A [1]; Binding to BRD4 43-463 Y390A + FKBP12 Kd, 15 µM FKBP12): 1.7 ± 0.5 nM
Kd (BRD4 43-463 Y390A [1]; absence of FKBP12): 25 ± 4 nM
α BRD4 43-463 Y390A (BRD4 43-463 Y390A [2]): 15
Kd (BRD4 43-463 Y97A [3]; Binding to BRD4 43-463 Y97A + FKBP12 Kd, 15 µM FKBP12): 22 ± 3 nM
Kd (BRD4 43-463 Y97A [3]; Binding to BRD4 43-463 Y97A - FKBP12 Kd, absence of FKBP12): 178 ± 20 nM
α BRD4 43-463 Y97A (BRD4 43-463 Y97A [4]): 8.1
α BRD2BD1 (BRD2BD1): 8.2
Kd (BRD2BD1; 15 µM FKBP12, read-out: Binding to BRD2BD1 + FKBP12 Kd): 9 ± 4 nM
Kd (BRD2BD1; absence of FKBP12, read-out: Binding to BRD2BD1 - FKBP12 Kd): 74 ± 20 nM
α BRD2BD2 (BRD2BD2): 38
Kd (BRD2BD2; 15 µM FKBP12, read-out: Binding to BRD2BD2 + FKBP12 Kd): 4 ± 2 nM
Kd (BRD2BD2; absence of FKBP12, read-out: Binding to BRD2BD2 - FKBP12 Kd): 150 ± 50 nM
α BRD3BD1 (BRD3BD1): 2.7
Kd (BRD3BD1; 15 µM FKBP12, read-out: Binding to BRD3BD1 + FKBP12 Kd): 13 ± 3 nM
Kd (BRD3BD1; absence of FKBP12, read-out: Binding to BRD3BD1 - FKBP12 Kd): 35 ± 7 nM
α BRD3BD2 (BRD3BD2): 3.8
Kd (BRD3BD2; 15 µM FKBP12, read-out: Binding to BRD3BD2 + FKBP12 Kd): 26 ± 6 nM
Kd (BRD3BD2; absence of FKBP12, read-out: Binding to BRD3BD2 - FKBP12 Kd): 100 ± 30 nM
Kd [5]: 1 ± 0.6 nM
Kd [6]: 8 ± 3 nM
IC50 (FKBP12): 29 nM
IC50 (BRD4): 194 nM
IC50 (MV4-11 cells; Homo sapiens, MV4-11, 120 h, read-out: Cell toxicity (MV4-11) - FKBP12 PROTAC IC50): 0.06 nM
Cell toxicity (MV4-11) - FKBP12 PROTAC IC50 (MV4-11 cells): sub-nanomolar
IC50 (INA-6 cells; FKBP12 knockout cells, read-out: Cell toxicity INA-6 FKBP12 KO IC50): 90 nM
IC50 (INA-6 cells; nontargeted control (NTC) cells, read-out: Cell toxicity INA-6 NTC IC50): 1.8 nM
concentration inducing reduced cell viability in FKBP12-negative cells (INA-6 cells; INA-6 FKBP12 knockout): ≥ 100 nM
IC50 (MYC mRNA): 2 nM
